Test results reported in patent US10703748B2, “Diazanaphthalen-3-yl carboxamides and preparation and use thereof” (Samumed, LLC, priority 2017, dated 2020).

Columns and labels:
[1] = system: SW480 colon carcinoma cells; experiment: Cell viability assay (CellTiter-Glo); details: Homo sapiens; for EC50: SW480, 96 h; for inhibition at 10 µM: SW480, read-out: percent inhibition at 10 μM
[2] = system: α-smooth muscle actin (aSMA) positive LL29 cells; experiment: Inhibition of the fibrotic process: αSMA staining in TGF-β1 treated LL29 fibroblasts from IPF patients; details: Homo sapiens, Fibroblast; for EC50: 96 h; for inhibition at 10 µM: read-out: percentage in parentheses after EC50 >10
Procedure: Each compound was dissolved in DMSO as a 10 mM stock and used to prepare compound source plates. […] LL29 cells were plated at 1,500 cells/well in 70 μL/well F12 medium supplemented with 1% Fetal Bovine Serum. […] Wells treated with TGF-β1 and containing DMSO were used as positive control, and cells with only DMSO were negative control. Cells were incubated at 37° C. and 5% CO2 for 4 days. Following incubation for 4 days, SYTOX green nucleic acid stain (Life Technologies [Thermo Fisher Scientific]) was added to the wells at a final concentration of 1 μM and incubated at room temperature for 30 min. Cells were then fixed using 4% formaldehyde (Electron Microscopy Sciences), washed 3 times with PBS followed by blocking and permeabilization using 3% Bovine Serum Albumin (BSA; Sigma) and 0.3% Triton X-100 (Sigma) in PBS.

DYRK1A kinase = DYRK1A kinase (Homo sapiens, UniProt Q13627); experiment: DYRK1A kinase activity (Ser/Thr 18 peptide Z-lyte FRET assay); format: biochemical; details: recombinant DYRK1A, 30 μM ATP, one hour at room temperature;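 further: kinase activity read as coumarin/fluorescein emission ratio after development step, with unphosphorylated and phosphorylated peptide forms setting 0% and 100% controls, values from dose-response curves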
GSK3β kinase = GSK3β kinase (Homo sapiens, UniProt P49841); experiment: GSK3β kinase activity (Ser/Thr 09 peptide Z-lyte FRET assay); format: biochemical; details: recombinant kinase, 46 μM ATP, one hour at room temperature; read-out: EC50
[3] = system: Tau phosphorylation at Ser396 (pSer396); experiment: Tau phosphorylation at Ser396 (pSer396) in SH-SY5Y cells, ELISA / western blot; format: cell-based, human; details: Homo sapiens; SH-SY5Y cells, overnight (16-18 h); read-out: pSer396 Tau EC50;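 further: decrease in pSer396 Tau measured in lysates of treated cells by colorimetric ELISA or chemiluminescent western blot, same pSer396 antibody for both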
Procedure: Two days before treatment, cells were seeded onto 96 well plates at 5×10^4 cells/well.
The above synthesized compounds were screened using the cell assay procedure to assess decrease Tau phosphorylation at Ser396 (pSer396) described below.
Cells were lysed with RIPA buffer complemented with phosphatase and protease inhibitors then lysates were spun down at 12,000 g for 10 min to remove any cellular debris.

[4] = system: Wnt-responsive Sp5-Luc reporter in SW480 colon carcinoma cells; experiment: Screening assay for Wnt activity (Sp5-Luc reporter gene assay); details: Homo sapiens; for EC50: SW480; for inhibition at 10 µM: SW480, read-out: percent inhibition at 10 μM
Procedure: The screening assay for Wnt activity is described as follows.
SW480 colon carcinoma cells were transduced with a lentiviral vector expressing luciferase with a human Sp5 promoter consisting of a sequence of eight TCF/LEF binding sites. […] These stably transduced SW480 cells were expanded in cell culture and used for all further screening activities. Each compound was dissolved in DMSO as a 10 mM stock and used to prepare compound source plates. Serial dilution (1:3, 10-point dose-response curves starting from 10 μM) and compound transfer was performed using the ECHO 550 (Labcyte, Sunnyvale, Calif.) into 384-well white solid bottom assay plates (Greiner Bio-One) with appropriate DMSO backfill for a final DMSO concentration of 0.1%. […] Following incubation, 15 μl of BriteLite Plus luminescence reagent (Perkin Elmer) was added to each well of the 384-well assay plates. The plates were placed on an orbital shaker for 2 min and then luminescence was quantified using the Envision (Perkin Elmer) plate reader.

IL-6 = IL-6 inhibition in LPS-stimulated human peripheral blood mononuclear cells (HTRF); details: Homo sapiens, PBMC; for EC50: 22 h; for inhibition at 10 µM: read-out: percentage in parentheses after EC50 >10
[5] = system: secreted cytokines TNFα, IL-6 and KC-GRO; experiment: Secreted cytokines in Lipopolysaccharide-stimulated BV-2 cells (Table 9 does not say which cytokine); format: cell-based, mouse; details: Mus musculus, BV-2, 5 h; read-out: EC50

Chain of GSK3β kinase (P49841 whole entry): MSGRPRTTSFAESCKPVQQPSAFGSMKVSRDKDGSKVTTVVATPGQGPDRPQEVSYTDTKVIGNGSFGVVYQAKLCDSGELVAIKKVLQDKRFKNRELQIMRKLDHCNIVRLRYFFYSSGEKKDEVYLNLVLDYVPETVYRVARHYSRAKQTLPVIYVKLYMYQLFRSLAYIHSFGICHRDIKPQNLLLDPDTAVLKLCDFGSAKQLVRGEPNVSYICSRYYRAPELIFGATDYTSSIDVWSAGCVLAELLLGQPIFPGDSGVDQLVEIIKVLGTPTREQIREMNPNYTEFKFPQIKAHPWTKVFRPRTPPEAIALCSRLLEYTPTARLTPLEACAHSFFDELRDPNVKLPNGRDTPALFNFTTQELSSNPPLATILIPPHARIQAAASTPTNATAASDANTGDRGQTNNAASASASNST

## O=C(Nc1ncc2ccc(-c3cccnc3)cc2n1)C1CC1 [Compound 1670, N-(7-(Pyridin-3-yl)quinazolin-2-yl)cyclopropanecarboxamide]
[1]
  EC50: 9050 nM
[2]
  EC50: 4850 nM
DYRK1A kinase
  EC50: 6 nM
GSK3β kinase
  EC50: 120 nM
[3]
  EC50: 604 nM
[4]
  EC50: 3710 nM
IL-6
  EC50: > 10000 nM
  inhibition at 10 µM: 7.2%
[5]
  EC50: 2900 nM

## Cn1cc(-c2cnc3cnc(NC(=O)C4CC4)cc3c2)cn1 [Compound 2722, N-(3-(1-Methyl-1H-pyrazol-4-yl)-1,7-naphthyridin-6-yl) cyclopropanecarboxamide]
[1]
  EC50: > 10000 nM
  inhibition at 10 µM: 31%
[2]
  EC50: 1010 nM
DYRK1A kinase
  EC50: 23 nM
GSK3β kinase
  EC50: 326 nM
[3]
  EC50: 6010 nM
[4]
  EC50: > 10000 nM
  inhibition at 10 µM: 13.7%
IL-6
  EC50: 8900 nM
[5]
  EC50: 822 nM

## Cn1cc(-c2cnc3cnc(NC(=O)C4CCNCC4)cc3c2)cn1 [Compound 2731, N-(3-(1-Methyl-1H-pyrazol-4-yl)-1,7-naphthyridin-6-yl)piperidine-4-carboxamide]
[1]
  EC50: > 10000 nM
  inhibition at 10 µM: 26.5%
[2]
  EC50: 5320 nM
DYRK1A kinase
  EC50: 21 nM
GSK3β kinase
  EC50: 5510 nM
[3]
  EC50: > 10000 nM
[4]
  EC50: > 10000 nM
  inhibition at 10 µM: 30.9%
IL-6
  EC50: > 10000 nM
  inhibition at 10 µM: 2.8%
[5]
  EC50: 1200 nM

## CC(C)CN1CCC(C(=O)Nc2cc3cc(-c4cnn(C)c4)cnc3cn2)CC1 [Compound 2736, 1-Isobutyl-N-(3-(1-methyl-1H-pyrazol-4-yl)-1,7-naphthyridin-6-yl) piperidine-4-carboxamide]
[1]
  EC50: > 10000 nM
  inhibition at 10 µM: 10.7%
[2]
  EC50: > 10000 nM
  inhibition at 10 µM: 17%
DYRK1A kinase
  EC50: 30 nM
GSK3β kinase
  EC50: 3730 nM
[3]
  EC50: > 10000 nM
[4]
  EC50: > 10000 nM
  inhibition at 10 µM: 19.3%
IL-6
  EC50: > 10000 nM
  inhibition at 10 µM: 0%
[5]
  EC50: 109 nM

## Cn1ncc(-c2cnc3cnc(NC(=O)C4CC5(C4)CN(CCF)C5)cc3c2)c1CN1CCCCC1 [Compound 3000, 2-(2-Fluoroethyl)-N-(3-(1-methyl-5-(piperidin-1-ylmethyl)-1H-pyrazol-4-yl)-1,7-naphthyridin-6-yl)-2-azaspiro[3.3]heptane-6-carboxamide]
[1]
  EC50: 5950 nM
[2]
  EC50: 9890 nM
DYRK1A kinase
  EC50: 10 nM
GSK3β kinase
  EC50: 166 nM
[3]
  EC50: 1830 nM
[4]
  EC50: 1950 nM
IL-6
  EC50: 2260 nM
[5]
  EC50: 307 nM

## Cn1cncc1-c1cnc2cnc(NC(=O)C3CCC(F)(F)CC3)cc2c1 [Compound 3120, 4,4-Difluoro-N-(3-(1-methyl-1H-imidazol-5-yl)-1,7-naphthyridin-6-yl) cyclohexane-1-carboxamide]
[1]
  EC50: > 10000 nM
  inhibition at 10 µM: 21.4%
[2]
  EC50: > 10000 nM
  inhibition at 10 µM: 27%
DYRK1A kinase
  EC50: 9 nM
GSK3β kinase
  EC50: 1330 nM
[3]
  EC50: 2430 nM
[4]
  EC50: > 10000 nM
  inhibition at 10 µM: 16.2%
IL-6
  EC50: > 10000 nM
  inhibition at 10 µM: 7.4%
[5]
  EC50: 649 nM

## O=C(Nc1cc2cc(-c3cnco3)cnc2cn1)C1CCN(C(=O)CN2CCCC2)CC1 [Compound 3249, N-(3-(Oxazol-5-yl)-1,7-naphthyridin-6-yl)-1-(2-(pyrrolidin-1-yl)acetyl)piperidine-4-carboxamide]
[1]
  EC50: > 10000 nM
  inhibition at 10 µM: 26.7%
[2]
  EC50: 7060 nM
DYRK1A kinase
  EC50: 26 nM
GSK3β kinase
  EC50: 6120 nM
[3]
  EC50: 10000 nM
[4]
  EC50: > 10000 nM
  inhibition at 10 µM: 31.5%
IL-6
  EC50: 8320 nM
[5]
  EC50: 1200 nM

## Cn1cc(-c2cc3cc(NC(=O)C4CC4)ncc3cn2)cn1 [Compound 3629, N-(6-(1-Methyl-1H-pyrazol-4-yl)-2,7-naphthyridin-3-yl) cyclopropanecarboxamide]
[1]
  EC50: 951 nM
[2]
  EC50: 97 nM
DYRK1A kinase
  EC50: 7 nM
GSK3β kinase
  EC50: 2 nM
[3]
  EC50: 21 nM
[4]
  EC50: 396 nM
IL-6
  EC50: 2760 nM
[5]
  EC50: 5700 nM

## Cn1cc(-c2cc3cc(NC(=O)C4CCN(CCC(F)(F)F)CC4)ncc3cn2)cn1 [Compound 3646, N-(6-(1-Methyl-1H-pyrazol-4-yl)-2,7-naphthyridin-3-yl)-1-(3,3,3-trifluoropropyl)piperidine-4-carboxamide]
[1]
  EC50: 9580 nM
[2]
  EC50: > 10000 nM
  inhibition at 10 µM: 12.9%
DYRK1A kinase
  EC50: 2 nM
GSK3β kinase
  EC50: 4 nM
[3]
  EC50: 79 nM
[4]
  EC50: 219 nM
IL-6
  EC50: 9040 nM
[5]
  EC50: > 10000 nM

## C[C@H]1CCCN1CC(=O)Nc1cc2cc(-c3cnn(C)c3)ncc2cn1 [Compound 3674, (S)—N-(6-(1-Methyl-1H-pyrazol-4-yl)-2,7-naphthyridin-3-yl)-2-(2-methylpyrrolidin-1-yl)acetamide]
[1]
  EC50: 6900 nM
[2]
  EC50: 604 nM
DYRK1A kinase
  EC50: 7 nM
GSK3β kinase
  EC50: 21 nM
[3]
  EC50: 192 nM
[4]
  EC50: 512 nM
IL-6
  EC50: > 10000 nM
  inhibition at 10 µM: 1.7%
[5]
  EC50: 6800 nM

## CN(CC(=O)Nc1cc2cc(-c3cnn(C)c3)ncc2cn1)C1CCC1 [Compound 3683, 2-(Cyclobutyl(methyl)amino)-N-(6-(1-methyl-1H-pyrazol-4-yl)-2,7-naphthyridin-3-yl)acetamide]
[1]
  EC50: > 10000 nM
  inhibition at 10 µM: 38.8%
[2]
  EC50: 597 nM
DYRK1A kinase
  EC50: 8 nM
GSK3β kinase
  EC50: 10 nM
[3]
  EC50: 179 nM
[4]
  EC50: 603 nM
IL-6
  EC50: > 10000 nM
  inhibition at 10 µM: 4.6%
[5]
  EC50: > 10000 nM

## Cn1cc(-c2cc3cc(NC(=O)[C@H]4CCCN4)ncc3cn2)cn1 [Compound 3689, (R)—N-(6-(1-Methyl-1H-pyrazol-4-yl)-2,7-naphthyridin-3-yl)pyrrolidine-2-carboxamide]
[1]
  EC50: > 10000 nM
  inhibition at 10 µM: 28.8%
[2]
  EC50: 893 nM
DYRK1A kinase
  EC50: 71 nM
GSK3β kinase
  EC50: 8 nM
[3]
  EC50: 156 nM
[4]
  EC50: 370 nM
IL-6
  EC50: > 10000 nM
  inhibition at 10 µM: 7.6%
[5]
  EC50: > 10000 nM

## CC(C(=O)Nc1cc2cc(-c3cnn(C)c3)ncc2cn1)N1CCCCC1 (stereo not drawn) [Compound 3698, N-(6-(1-Methyl-1H-pyrazol-4-yl)-2,7-naphthyridin-3-yl)-2-(piperidin-1-yl) propanamide]
[1]
  EC50: 6900 nM
[2]
  EC50: 1070 nM
DYRK1A kinase
  EC50: 64 nM
GSK3β kinase
  EC50: 9 nM
[3]
  EC50: 76 nM
[4]
  EC50: 288 nM
IL-6
  EC50: > 10000 nM
  inhibition at 10 µM: 4.6%
[5]
  EC50: 4800 nM

## Cn1cc(-c2cc3cc(NC(=O)C4CCN(S(C)(=O)=O)CC4)ncc3cn2)cn1 [Compound 3699, N-(6-(1-Methyl-1H-pyrazol-4-yl)-2,7-naphthyridin-3-yl)-1-(methylsulfonyl) piperidine-4-carboxamide]
[1]
  EC50: 6720 nM
[2]
  EC50: 25 nM
DYRK1A kinase
  EC50: 2 nM
GSK3β kinase
  EC50: 6 nM
[3]
  EC50: 43 nM
[4]
  EC50: 234 nM
IL-6
  EC50: > 10000 nM
  inhibition at 10 µM: 8.4%
[5]
  EC50: > 10000 nM

## Cn1cc(-c2cc3cc(NC(=O)CC4CNCCO4)ncc3cn2)cn1 (stereo not drawn) [Compound 3714, N-(6-(1-Methyl-1H-pyrazol-4-yl)-2,7-naphthyridin-3-yl)-2-(morpholin-2-yl) acetamide]
[1]
  EC50: 6020 nM
[2]
  EC50: 1540 nM
DYRK1A kinase
  EC50: 10 nM
GSK3β kinase
  EC50: 8 nM
[3]
  EC50: 210 nM
[4]
  EC50: 845 nM
IL-6
  EC50: 5700 nM
[5]
  EC50: 1620 nM

## Cn1cc(-c2cc3cc(NC(=O)C4CCN(Cc5ncco5)CC4)ncc3cn2)cn1 [Compound 3723, N-(6-(1-Methyl-1H-pyrazol-4-yl)-2,7-naphthyridin-3-yl)-1-(oxazol-2-ylmethyl)piperidine-4-carboxamide]
[1]
  EC50: > 10000 nM
  inhibition at 10 µM: 43.7%
[2]
  EC50: > 10000 nM
  inhibition at 10 µM: 9.1%
DYRK1A kinase
  EC50: 2 nM
GSK3β kinase
  EC50: 10 nM
[3]
  EC50: 252 nM
[4]
  EC50: 842 nM
IL-6
  EC50: > 10000 nM
  inhibition at 10 µM: 2.8%
[5]
  EC50: 94 nM

## CN1CCCN(CC(=O)Nc2cc3cc(-c4cnn(C)c4)ncc3cn2)CC1 [Compound 3733, 2-(4-Methyl-1,4-diazepan-1-yl)-N-(6-(1-methyl-1H-pyrazol-4-yl)-2,7-naphthyridin-3-yl)acetamide]
[1]
  EC50: > 10000 nM
  inhibition at 10 µM: 37.3%
[2]
  EC50: 1830 nM
DYRK1A kinase
  EC50: 16 nM
GSK3β kinase
  EC50: 43 nM
[3]
  EC50: 227 nM
[4]
  EC50: 515 nM
IL-6
  EC50: > 10000 nM
  inhibition at 10 µM: 6.2%
[5]
  EC50: 3700 nM

## CN1CCC(Oc2ccc(C(=O)Nc3cc4cc(-c5cnn(C)c5)ncc4cn3)cc2)CC1 [Compound 3772, N-(6-(1-Methyl-1H-pyrazol-4-yl)-2,7-naphthyridin-3-yl)-4-((1-methylpiperidin-4-yl)oxy)benzamide]
[1]
  EC50: 8160 nM
[2]
  EC50: 1140 nM
DYRK1A kinase
  EC50: 8 nM
GSK3β kinase
  EC50: 390 nM
[3]
  EC50: 7280 nM
[4]
  EC50: 221 nM
IL-6
  EC50: > 10000 nM
  inhibition at 10 µM: 10.6%
[5]
  EC50: ≥ 10000 nM
